Results taken from publication PMC11984392, “EphA2-targeted alpha-particle theranostics for enhancing PDAC treatment” (Theranostics, 2025).
Like-named read-outs stand apart in the source and are kept apart here. *1 amine or outer side, *2 acyl side, *3 side chain or, on linkers, in order; H or OH if unused. Where a SMILES comes first, the peptide text is derived from it. Bridges are numbered along the chain shown (N, C = ends). [ ]: non-standard residue; d: D form. The star is where a group is joined. TATA = O=C(CC[*:1])N1CN(C(=O)CC[*:2])CN(C(=O)CC[*:3])C1; NOTA = O=C(O)CN1CCN(CC(=O)O)CCN(CC(=O)*)CC1; Hyp = O=C(O)[C@@H]1C[C@@H](O)CN1; hArg = N=C(N)NCCCC[C@H](N)C(=O)O; PEG2 = NCCOCCOCCC(=O)O; Sar = CNCC(=O)O

What was measured:
[1] = In vitro stability of radiotracers in saline / formulation buffer; format: physicochemical; details: 37 °C, radio-RP-HPLC
Protocol: The stability of the radiotracers was assessed in saline and human serum at 37 °C to mimic physiological conditions. Approximately 1.5 mCi of the radiotracer, prepared in 100-150 µL of saline, was added to 0.5 mL of either saline or human serum in separate microcentrifuge tubes. The mixtures were gently vortexed and then incubated at 37 °C in an incubator. At predetermined time-points (1, 2, and 3 h), 100 µL aliquots were collected from the incubation mixtures for analysis. For serum samples, proteins were removed by adding 100 µL of saline and 50 µL of ethanol, followed by ultrafiltration using 10 kDa centrifugal filters made of regenerative cellulose membranes. The filtration process was performed by centrifugation at 14,000 rpm for 10 min and repeated once more to ensure complete protein removal. The filtrate was collected for analysis. The radiochemical integrity of the radiotracer in both saline and serum was evaluated using radio-RP-HPLC.

Ex vivo biodistribution = format: in vivo, NSG mice; details: both sexes, NSG, mouse, total radioactivity, 60 min p.i., mean ± SEM (n = 4 or 5)
Protocol: Animal studies were performed under Johns Hopkins University Animal Care and Use Committee (ACUC)-approved protocol (Principal investigator: Sridhar Nimmagadda, Ph.D. and Protocol number M021M175). Male and Female NSG mice (5-6 weeks old) were purchased from JHU immunocompromised core and used to establish xenografts by administering cells subcutaneously (top right flank, unless otherwise noted) to form various tumor models within 3-4 weeks. Following cell numbers were used: Panc1, AsPC1, BxPC3 (1 M), Hs766T and SU8686 (2 M), CFPAC and Panc1005 (5 M). Imaging or biodistribution studies (n = 3-5) were conducted on mice with tumor volumes of 100-200 mm^3. The Panc1 orthotopic tumor model was established by surgically implanting a 3-5 mm^3 section of Panc1 tumor xenograft directly onto the pancreas. The implanted tumors were allowed to grow and were ready for imaging after 10 days of implantation.
Mice with 100-200 mm^3 tumor volume were used for ex vivo biodistribution studies. For radiotracer pharmacokinetics and dosimetry studies, mice with Panc1 tumor xenograft received ~80 µCi (2.96 MBq) [^68Ga]AJ201 and were sacrificed at pre-determined time points (5, 30, 60, 90 and 120 min). All other mice were injected with ~50 µCi (1.85 MBq; 0.2 to 0.5 nmol) Ga-68 labeled radiotracer and were sacrificed at 60 min. The selected tissues were collected, weighed, counted, and their %ID/g values calculated for biodistribution analysis. For pharmacokinetics and dosimetry studies, selected tissues included blood, muscle, tumor, thymus, heart, lung, liver, pancreas, stomach, small intestine, large intestine, spleen, adrenals, kidney, bladder, femur, brain and tumor xenografts. For other studies, selected tissues were blood, muscle, tumor, heart, lung, liver, pancreas, small intestine, spleen, kidney.

Structure (SMILES): CC(C)C[C@@H]1NC(=O)[C@@H]2CSCCC(=O)N3CN(CN(C3)C(=O)CCSC[C@H](NC(=O)[C@H](CC(=O)O)NC(=O)[C@H](CCCCNC(=N)N)NC(=O)[C@H](C)NC(=O)CNC(=O)CN(C)C(=O)CN(C)C(=O)CN(C)C(=O)[C@H](CCCNC(=N)N)NC(=O)CNC(=O)CCOCCOCCNC(=O)CN3CCN(CC(=O)O)CCN(CC(=O)O)CC3)C(=O)N3C[C@H](O)C[C@H]3C(=O)N[C@@H](CC(C)C)C(=O)N[C@@H](C(C)C)C(=O)N[C@@H](CC(N)=O)C(=O)N3CCC[C@H]3C(=O)N[C@@H](CC(C)C)C(=O)N2)C(=O)CCSC[C@@H](C(N)=O)NC(=O)[C@H](CCCCNC(=N)N)NC(=O)[C@H](Cc2c[nH]c3ccccc23)NC(=O)[C@@H](CC(=O)O)NC(=O)[C@@H]2CCCN2C(=O)[C@H](Cc2c[nH]cn2)NC1=O [[^68Ga]AJ201, metal not drawn] ({NOTA-PEG2}-GR[Sar][Sar][Sar]GA[hArg]DC[Hyp]LVNPLCLHP[dD]W[hArg]C-NH2; linker 10-17-24 via TATA)
- Time of stability in formulation buffer ([1]; 10% EtOH/saline): at least 3 h
- Stability in saline (radio-HPLC finding) ([1]; saline, up to 3 h, ~1.5 mCi in 0.5 mL): stable without noticeable degradation or impurity formation
- tissue uptake at 1 h (Ex vivo biodistribution; blood, AsPC1 xenograft, read-out: Blood uptake): 3.32 ± 0.24 %ID/g
- tissue uptake at 1 h (Ex vivo biodistribution; blood, BxPC3 xenograft, read-out: Blood uptake): 0.58 ± 0.04 %ID/g
- tissue uptake at 1 h (Ex vivo biodistribution; blood, CFPAC xenograft, read-out: Blood uptake): 0.69 ± 0.21 %ID/g
- tissue uptake at 1 h (Ex vivo biodistribution; blood, Hs766T xenograft, read-out: Blood uptake): 1.39 ± 0.3 %ID/g
- tissue uptake at 1 h (Ex vivo biodistribution; blood, Panc1005 xenograft, read-out: Blood uptake): 0.44 ± 0.05 %ID/g
- tissue uptake at 1 h (Ex vivo biodistribution; blood, Su8686 xenograft, read-out: Blood uptake): 0.71 ± 0.18 %ID/g
- tissue uptake at 1 h (Ex vivo biodistribution; heart, AsPC1 xenograft, read-out: Heart uptake): 1.25 ± 0.1 %ID/g
- tissue uptake at 1 h (Ex vivo biodistribution; heart, CFPAC xenograft, read-out: Heart uptake): 0.34 ± 0.08 %ID/g
- tissue uptake at 1 h (Ex vivo biodistribution; heart, Hs766T xenograft, read-out: Heart uptake): 0.9 ± 0.25 %ID/g
- tissue uptake at 1 h (Ex vivo biodistribution; heart, Panc1005 xenograft, read-out: Heart uptake): 0.2 ± 0.02 %ID/g
- tissue uptake at 1 h (Ex vivo biodistribution; heart, Su8686 xenograft, read-out: Heart uptake): 0.25 ± 0.06 %ID/g
- tissue uptake at 1 h (Ex vivo biodistribution; kidney, AsPC1 xenograft, read-out: Kidney uptake): 59.6 ± 2.86 %ID/g
- tissue uptake at 1 h (Ex vivo biodistribution; kidney, BxPC3 xenograft, read-out: Kidney uptake): 59 ± 7.17 %ID/g
- tissue uptake at 1 h (Ex vivo biodistribution; kidney, CFPAC xenograft, read-out: Kidney uptake): 69.1 ± 4.56 %ID/g
- tissue uptake at 1 h (Ex vivo biodistribution; kidney, Hs766T xenograft, read-out: Kidney uptake): 52.6 ± 4.07 %ID/g
- tissue uptake at 1 h (Ex vivo biodistribution; kidney, Panc1005 xenograft, read-out: Kidney uptake): 67 ± 6.9 %ID/g
- tissue uptake at 1 h (Ex vivo biodistribution; kidney, Su8686 xenograft, read-out: Kidney uptake): 37.7 ± 2.64 %ID/g
- tissue uptake at 1 h (Ex vivo biodistribution; liver, AsPC1 xenograft, read-out: Liver uptake): 1.59 ± 0.07 %ID/g
- tissue uptake at 1 h (Ex vivo biodistribution; liver, BxPC3 xenograft, read-out: Liver uptake): 0.42 ± 0.02 %ID/g
- tissue uptake at 1 h (Ex vivo biodistribution; liver, CFPAC xenograft, read-out: Liver uptake): 0.43 ± 0.09 %ID/g
- tissue uptake at 1 h (Ex vivo biodistribution; liver, Hs766T xenograft, read-out: Liver uptake): 0.89 ± 0.21 %ID/g
- tissue uptake at 1 h (Ex vivo biodistribution; liver, Panc1005 xenograft, read-out: Liver uptake): 0.29 ± 0.03 %ID/g
- tissue uptake at 1 h (Ex vivo biodistribution; liver, Su8686 xenograft, read-out: Liver uptake): 0.34 ± 0.06 %ID/g
- tissue uptake at 1 h (Ex vivo biodistribution; lung, AsPC1 xenograft, read-out: Lung uptake): 2.78 ± 0.13 %ID/g
- tissue uptake at 1 h (Ex vivo biodistribution; lung, BxPC3 xenograft, read-out: Lung uptake): 0.7 ± 0.04 %ID/g
- tissue uptake at 1 h (Ex vivo biodistribution; lung, CFPAC xenograft, read-out: Lung uptake): 0.89 ± 0.2 %ID/g
- tissue uptake at 1 h (Ex vivo biodistribution; lung, Hs766T xenograft, read-out: Lung uptake): 1.71 ± 0.55 %ID/g
- tissue uptake at 1 h (Ex vivo biodistribution; lung, Panc1005 xenograft, read-out: Lung uptake): 0.54 ± 0.05 %ID/g
- tissue uptake at 1 h (Ex vivo biodistribution; lung, Su8686 xenograft, read-out: Lung uptake): 0.76 ± 0.16 %ID/g
- tissue uptake at 1 h (Ex vivo biodistribution; muscle, AsPC1 xenograft, read-out: Muscle uptake): 0.41 ± 0.03 %ID/g
- tissue uptake at 1 h (Ex vivo biodistribution; muscle, BxPC3 xenograft, read-out: Muscle uptake): 0.18 ± 0.01 %ID/g
- tissue uptake at 1 h (Ex vivo biodistribution; muscle, Hs766T xenograft, read-out: Muscle uptake): 0.46 ± 0.13 %ID/g
- tissue uptake at 1 h (Ex vivo biodistribution; muscle, Panc1005 xenograft, read-out: Muscle uptake): 0.11 ± 0.01 %ID/g
- tissue uptake at 1 h (Ex vivo biodistribution; muscle, Su8686 xenograft, read-out: Muscle uptake): 0.16 ± 0.04 %ID/g
- tissue uptake at 1 h (Ex vivo biodistribution; pancreas, AsPC1 xenograft, read-out: Pancreas uptake): 0.65 ± 0.04 %ID/g
- tissue uptake at 1 h (Ex vivo biodistribution; pancreas, BxPC3 xenograft, read-out: Pancreas uptake): 0.25 ± 0.02 %ID/g
- tissue uptake at 1 h (Ex vivo biodistribution; pancreas, CFPAC xenograft, read-out: Pancreas uptake): 0.32 ± 0.07 %ID/g
- tissue uptake at 1 h (Ex vivo biodistribution; pancreas, Hs766T xenograft, read-out: Pancreas uptake): 0.61 ± 0.22 %ID/g
